Source: patent publication US9119806B2, “Culturing circular ssDNA viruses for the production of vaccines” (priority 2007, dated 2015)

B1: IL-6: Porcine interleukin 6 (R&D systems) (protein, UniProt P26893 30-212, looked up)
Interleukin-6: ERLEEDAKGDATSDKMLFTSPDKTEELIKYILGKISAMRKEMCEKYEKCENSKEVLAENNLNLPKMAEKDGCFQSGFNQETCLMRITTGLVEFQIYLDYLQKEYESNKGNVEAVQISTKALIQTLRQKGKNPDKATTPNPTTNAGLLDKLQSQNEWMKNTKIILILRSLEDFLQFSLRAIRIM
B2: IL-10: Porcine interleukin 10 (R&D systems) (protein, UniProt Q29055 19-175, looked up)
Interleukin-10: SIKSENSCIHFPTSLPHMLRELRAAFGPVKSFFQTKDQMGDLLLTGSLLEDFKGYLGCQALSEMIQFYLEDVMPKAESDGEDIKEHVNSLGEKLKTLRLRLRRCHQFLPCENKSKAVEEVKSAFSKLQERGVYKAMGEFDIFINYIEAYMTMKMRKN

Key:
[1] = test system: PCV2 (field strain Imp-1121); assay: PCV2 replication in inoculated pigs given IFN-gamma or ConA; type: in vivo; conditions: pigs inoculated at 19 days of age; samples 10, 15, 21 days post inoculation
Description: Pigs are inoculated with PCV2 (field strain Imp-1121) at 19 days of age. These inoculated pigs are divided in 3 groups. One group contains control pigs (only PCV2). The second group of pigs receives recombinant IFN-gamma (100,000 U per pig every three days). The third group contains pigs that receive ConA (1.5 mg/kg every three days). At different times post inoculation (10, 15, 21 days) samples are collected and the replication of the virus is assessed.

[2] = test system: PCV2 strain Stoon-1010 in PK-15 cells; assay: Progeny PCV2 production in PK-15 cells with acidification inhibitors and/or IFN-gamma; type: cell-based, Porcine circovirus 2
Description: For progeny virus production assays, 2×10^5 cells were seeded in every well of 24-well cell culture plates. Cells were pre-treated with or without 500 U/ml IFN-gamma at 6 hours post seeding. At 24 h post-seeding, cells were washed and inoculated with the prototype PCV2 strain Stoon-1010 at an m.o.i. of 0.3 for 1 hour at 37° C. The viral inoculum was washed-off and cells were further incubated in 1 ml of culture medium with or without 25 mM ammonium chloride, 125 μM chloroquine diphosphate and/or 6 μM monensin for 24 hours. Then, the culture medium with or without endosomal-lysosomal system acidification inhibitors was replaced with fresh culture medium without inhibitors. At 1, 24, 48 and 72 hours post-inoculation the supernatant was collected. Subsequently the culture was washed once with 1 ml PBS. Both the supernatant and the washing fluid were centrifuged for 10 minutes at 15,000×g to pellet cells and debris. The centrifuged supernatant and washing fluids were combined and considered to contain the extracellular virus. Both pellets and cell cultures were freeze-thawed three times and considered to contain the intracellular virus. Intra- and extracellular virus titres were determined by titration on PCV-negative PK-15 cells as described previously. Viral antigens were detected using an IPMA as described above and PCV2 titre was expressed as log10 TCID50 per 10^5 cells.

[3] = test system: PCV2 infection of PK-15 cells; assay: Number of PCV2-infected PK-15 cells (IPMA) with endosomal-lysosomal acidification inhibitors with or without IFN-gamma; type: cell-based, Porcine circovirus 2; conditions: for effect on PCV2 infection in IFN-gamma treated cells (in words): PK-15 pre-treated with 500 U/ml IFN-gamma 24 hours; for effect on PCV2 infection in IFN-gamma treated cells (in words) / effect on PCV2 infection compared to control (in words): inhibitor 24 hours after inoculation, 36 hpi; for effect on PCV2 infection compared to control (in words): PK-15 without IFN-gamma; for highest concentration exerting maximal effect without affecting cell viability (chosen): two-fold dilution in PK-15 cells, Stoon-1010
Description: Endosomal-lysosomal system acidification was inhibited using lysosomotropic weak bases (ammonium chloride and chloroquine diphosphate) and carboxylic ionophore monensin. All chemical compounds were purchased from Sigma. In a first set of experiments, a two-fold dilution of each inhibitor in PK-15 cells using Stoon-1010 was performed to determine the highest concentration of each inhibitor that exerted the maximal effect without affecting cell viability. Finally, 25 mM ammonium chloride, 125 μM chloroquine diphosphate and 6 μM monensin were chosen. PK-15 cells were cultivated for 24 hours and then inoculated with a dose of PCV2 for 1 hour at 37° C. The viral inoculum was washed-off and cells were further incubated in culture medium with or without inhibitors of endosomal-lysosomal acidification for 24 hours. Then, the culture medium containing endosomal-lysosomal system inhibitors was replaced with fresh culture medium without inhibitors. After the first cycle of PCV2 replication, at 36 hpi, cells were fixed with methanol at −20° C. for 10 minutes. Cells were stored at −20° C. until they were stained using an immunoperoxidase monolayer assay (IPMA) as described by Sanchez et al. (2003, Vet Microbiol 95, 15-25).
PK-15 cells were pre-treated with or without 500 U/ml IFN-gamma for 24 hours before they were inoculated with the same dose of PCV2 for 1 hour at 37° C. The viral inoculum was washed-off and cells were further incubated in culture medium containing inhibitors of endosomal-lysosomal acidification for 24 hours. Then, the culture medium containing endosomal-lysosomal system inhibitors was replaced with fresh culture medium without inhibitors. After the first cycle of PCV2 replication, at 36 hours post-inoculation cells were fixed with methanol at −20° C. for 10 minutes. Cells were stored at −20° C. until they were stained using an immunoperoxidase monolayer assay (IPMA) as described above. The number of infected cells per well in mock-treated cells inoculated with an equal dose of PCV2 as treated cells was used as the referent, and all results are expressed as a percentage of this referent. All experiments were performed three times, and each condition in a single experiment was performed in duplicate.

[4] = test system: PCV2-infected 3D4/31 cells; assay: Number of PCV2-infected 3D4/31 cells (IPMA) after cytokine treatment; type: cell-based, Porcine circovirus 2; conditions: 3D4/31 cells; any concentration, before, during or after inoculation
From the text: (§1) In order to use cells, more related to the target cells in vivo, the monocytic cell line 3D4/31 was used to confirm the effect of the different cytokines on the number of PCV2-infected cells. The 3D4/31 cell line is a porcine monomyeloid cell lines that was established following transfection of primary porcine alveolar macrophage cultures with plasmid pSV3neo, carrying genes for neomycin resistance and SV40 large T antigen. (Weingartl et al. (2002) J Virol Methods. 10, 203-216). These cells were maintained in a 1:1 mixture of RPMI-1640 (Invitrogen) and DMEM (Invitrogen) supplemented with 10% fetal bovine serum, 0.3 mg/ml glutamine, 100 U/ml penicillin, 0.1 mg/ml streptomycin, 0.1 mg/ml kanamycin and 1% non-essential amino acids 100× (GIBCO BRL®, Grand Island, USA). These experiments were also performed in 96-well plates containing the same number of cells. Furthermore, to monitor the effect of IFN-gamma on the entry of PCV2 virion-like particles was determined, 3D4/31 cells were seeded at 2×10^5 cells/ml of medium onto microscopic slides mounted with an 8 well cell culture silicone chamber (Vivascience AG, Hanover). In all inoculations, the same PCV2-strain (Stoon-1010) was used at a multiplicity of infection of 0.01. The virus was diluted in MEM and inoculated on the cell cultures by incubating cells and virus for 1 hour at 37° C. After 1 hour, the inoculum was removed, the cultures were washed twice with MEM and new culture medium was added.
(§2) The influence of the cytokines on the infection of PCV2 in PK-15 and 3D4/31 cells was determined by adding two-fold-dilution series of the cytokines to the medium of the cells before, during or after the inoculation. IL-1, IL-6, […] and IFN-alpha were used in concentrations ranging from 0.25-250 Units/ml (U/ml), IFN-gamma was used in concentrations ranging from 0.25-1000 U/ml and IL-10 was used in concentrations from 0.13-125 U/ml. Cell cultures were either pre-treated with the cytokines for 24 hours before inoculation, treated during the inoculation or the cytokines were added in the medium after the inoculation. After 36 hours of incubation at 37° C. in an environment supplemented with 5% CO2, the cells were fixed by drying and frozen at −20° C. The plates were stained with an immuno-peroxydase monolayer assay (IPMA) as described by Sanchez et al. (2003, Vet Microbiol 95, 15-25) and the number of PCV2-positive cells was counted by light microscopy. In each plate a control was inoculated with an equal dose of mock-treated PCV2 (treated with MEM without cytokines). The number of infected cells in this well was used as the reference and all results were expressed as a ratio to this reference.

[5] = test system: PCV2-infected PK-15 cells; assay: Number of PCV2-infected PK-15 cells (IPMA) after treatment with cytokines or natural cytokine sources; type: cell-based, Porcine circovirus 2; conditions: PK-15 cells; cytokine dilution series, before, during or after inoculation; 36 h
Description: PK-15 cells were seeded and maintained in culture medium containing 5%-10% fetal bovine serum (FBS), 0.3 mg/ml glutamine, 100 U/ml penicillin, 0.1 mg/ml streptomycin, 0.1 mg/ml kanamycin dissolved in minimal essential medium (MEM) (Gibco BRL®, Grand Island, USA) or dissolved in RPMI-1640 (GIBCO BRL®, Grand Island, USA) containing 1% nonessential amino acids (100×; GIBCO BRL®, Grand Island, USA) and 1 mM sodium pyruvate (GIBCO BRL®, Grand Island, USA). Cells were seeded at a concentration of 150,000 cells per ml of medium. For the detection of total viral antigen positive cells, the cells were seeded in 96-well microtiter plates (Nunc) (15,000-20,000 cells per well). To detect the expression of specific viral antigens, cells were seeded on sterile cover slips in Leighton tubes (150,000 cells per tube) and finally progeny virus production assays were performed in 24-well plates containing […].
as §1, §2
Two-fold dilutions of the BAL-fluids of the PRCV and mock-inoculated pigs were added to the medium of PCV2-inoculated PK-15 cells after inoculation. Concentrations of the added BAL-fluids ranged from 1.25 to 5%. Supernatants of ConA and mock-stimulated PBMC's were also added to the culture medium of PK-15 cells after inoculation in concentrations ranging from […] to 50%. […]

[6] = IFN-gamma 500 U/ml pre-treatment

Molecule	replication of PCV2 compared to control pigs (in words) [1]	PCV2 titres at 1 hpi ([2]; IFN-gamma 0 U/ml)	PCV2 titres at 24 hpi ([2]; IFN-gamma 0 U/ml)	PCV2 titres at 48 hpi ([2]; IFN-gamma 0 U/ml)	PCV2 titres at 72 hpi ([2]; IFN-gamma 0 U/ml)	PCV2 titres at 1 hpi [2, 6]	PCV2 titres at 24 hpi [2, 6]	PCV2 titres at 48 hpi [2, 6]	PCV2 titres at 72 hpi [2, 6]	effect on PCV2 infection in IFN-gamma treated cells (in words) [3]	effect on PCV2 infection compared to control (in words) [3]	highest concentration exerting maximal effect without affecting cell viability (chosen) [3]	change in the number of PCV2-positive cells (in words) [4]	change in the number of PCV2-positive cells (in words) [5]
concanavalin A [ConA]	increase in the replication of PCV2	–	–	–	–	–	–	–	–	–	–	–	–	–
Cl.N [Ammonium chloride, ammonium chloride]	–	2.1 TCID50 per 10^5 cells	1.9 TCID50 per 10^5 cells	3.0 TCID50 per 10^5 cells	3.8 TCID50 per 10^5 cells	1.6 TCID50 per 10^5 cells	3.0 TCID50 per 10^5 cells	4.0 TCID50 per 10^5 cells	4.8 TCID50 per 10^5 cells	enhanced PCV2 infection	enhance PCV2 infection	25000 µM	–	–
CC[C@@]1([C@@H]2O[C@@H]([C@H]3O[C@@](O)(CO)[C@H](C)C[C@@H]3C)C[C@@H]2C)CC[C@H]([C@]2(C)CC[C@]3(C[C@H](O)[C@@H](C)[C@@H]([C@@H](C)[C@@H](OC)[C@H](C)C(=O)O)O3)O2)O1 [Monensin, monensin]	–	1.9 TCID50 per 10^5 cells	2.3 TCID50 per 10^5 cells	3.9 TCID50 per 10^5 cells	3.6 TCID50 per 10^5 cells	2.0 TCID50 per 10^5 cells	2.8 TCID50 per 10^5 cells	4.6 TCID50 per 10^5 cells	4.8 TCID50 per 10^5 cells	enhanced PCV2 infection	enhance PCV2 infection	6 µM	–	–
TNF-alpha	–	–	–	–	–	–	–	–	–	–	–	–	did not induce a significant change	no significant change
CCN(CC)CCCC(C)Nc1ccnc2cc(Cl)ccc12 (stereo not shown) [Chloroquine diphosphate, chloroquine diphosphate]	–	1.4 TCID50 per 10^5 cells	1.8 TCID50 per 10^5 cells	3.3 TCID50 per 10^5 cells	4.3 TCID50 per 10^5 cells	1.6 TCID50 per 10^5 cells	2.3 TCID50 per 10^5 cells	4.0 TCID50 per 10^5 cells	4.6 TCID50 per 10^5 cells	enhanced PCV2 infection	enhance PCV2 infection	125 µM	–	–
B1	–	–	–	–	–	–	–	–	–	–	–	–	did not induce a significant change	no significant change
B2	–	–	–	–	–	–	–	–	–	–	–	–	did not induce a significant change	no significant change
